The subject of data set [1] is C. albicans Gu5 (ATCC MYA-574). The data set is described as follows: Minimum inhibitory concentration (MIC). The note with it: for 5-FC the concentration inhibiting ≧50% by absorbance. In kind it is cell-based. The procedure: (§1) To prepare the inoculation, the fungal strains were cultured for approximately 24 hours on Sabouraud dextrose agar (SDA) plates were diluted to a 0.5 McFarland standard (1-5×10^6 CFU/mL) in sterile normal saline and diluted 100-fold in yeast peptone dextrose (YPD). Inoculum was added to serial dilutions of AmB in 96-well plates, following the microplate dilution method. Plates were sealed with Breathe Easier membranes (Sigma Aldrich, St. Louis, Mo.). ATCC 9763 or K1 was incubated at 30° C. or 37° C., respectively, for 18-20 hours. […] SDA was prepared with 1% peptone, 4% glucose, and 1.5% agar in deionized water. YPD media was prepared with 1% yeast extract, 2% peptone, and 2% glucose in deionized water. Autoclaving was used to sterilize media.
(§2) For 5-FC, the concentration necessary to inhibit ≧50% as determined by absorbance is reported.

For data set [2], the system named is C. albicans SC5314 (ATCC MYA-2876). The data set is described as follows: Minimum inhibitory concentration (MIC). It is filed as cell-based. The settings on record: for 5-FC the concentration inhibiting ≧50% by absorbance. The procedure:
as §1, §2

For a further data set, the system named is C. albicans strain K1. The data set is described as follows: Minimum inhibitory concentration (MIC). In kind it is cell-based. The note with it: K1 (Example 6); for 5-FC the concentration inhibiting ≧50% by absorbance. The procedure: as §1, §2
Another data set deals with K1. The data set is described as follows: Neutropenic mouse model of disseminated candidiasis. In kind it is in vivo, ICR/Swiss mice. The note with it: 48 hours; 72 mg/kg 5-FC.
In another data set the test system is bovine red blood cells. The settings on record: 5-FC alone, 25-100 μg/ml.

Here are results for one compound from patent publication US20170290852A1, “MICELLE FORMULATIONS OF AMPHOTERICIN B” (Wisconsin Alumni Research Foundation, priority 2016, published 2017).

Converted amounts (≈) assume the structure as drawn.

By MIC is commonly meant the lowest concentration that inhibits growth of the organism.

As to `Nc1nc(=O)[nH]cc1F` [5-FC, 5-fluorocytosine], the MIC was 81 µg/mL (≈ 627 µM) in data set [1], 20 µg/mL (≈ 155 µM) in data set [2] and 64 µg/mL (≈ 496 µM) in the data set with C. albicans strain K1. Further, in the data set with K1, the “fungal burden of the control group relative to treated group” value came out at 1.2 times. In the data set on bovine red blood cells, the hemolytic activity is reported as less than 0.4%.
